From publication PMC4631180 (British Journal of Clinical Pharmacology, 2015)
“Also recorded” adds a separate entry of the source. Structures can show the parent of a compound that is named as a salt. Where two headings read alike, the source gives them in different places. Marks after values point to notes of the source that are not given here.

Columns and labels:
[1] = type: in vivo, human; conditions: for Total AUC: extrapolated to infinity; for half-life: both, human, plasma, oral, t½; for Cmax ratio (Day2) / (Day1), arithmetic mean / Cmax ratio (Day2) / (Day1), geometric mean / Cmax ratio (Day6) / (Day1), arithmetic mean / Cmax ratio (Day6) / (Day1), geometric mean / Total AUC ratio (Day2) / (Day1), arithmetic mean / Total AUC ratio (Day2) / (Day1), geometric mean / Total AUC ratio (Day6) / (Day1), arithmetic mean / Total AUC ratio (Day6) / (Day1), geometric mean / Truncated AUC ratio (Day2) / (Day1), arithmetic mean / Truncated AUC ratio (Day2) / (Day1), geometric mean / Truncated AUC ratio (Day6) / (Day1), arithmetic mean / Truncated AUC ratio (Day6) / (Day1), geometric mean: favipiravir co-administration vs control; for Truncated AUC: 0–12 h
[2] = type: in vivo, human
[3] = tested on: acetaminophen sulfate formation (sulfation); experiment: Inhibition of acetaminophen sulfate formation in pooled human hepatic S9; type: in vitro ADME; conditions: both, pooled human hepatic S9, probe acetaminophen (2 mM)
[4] = tested on: acetaminophen glucuronide formation (pooled human hepatic S9); experiment: Inhibition of acetaminophen glucuronide formation in pooled human hepatic S9; type: in vitro ADME; conditions: pooled human hepatic S9, acetaminophen 2 mM; favipiravir up to 3000 µM, T-705M1 3–300 µM
[5] = Day 2, + acute favipiravir, mean (± SE), n = 28
[6] = Day 6, + extended favipiravir, mean (± SE), n = 28
[7] = 650 mg, Day 1, acetaminophen alone (control), mean (± SE), n = 28
[8] = Day 1, acetaminophen alone (control), mean (± SE), n = 28

Row | Compound | Total AUC [1, 5] | Total AUC [1, 6] | half-life [1, 7] [h] | half-life [1, 5] [h] | Cmax ratio (Day2) / (Day1), arithmetic mean [1] | Cmax ratio (Day2) / (Day1), geometric mean [1] | Cmax ratio (Day6) / (Day1), arithmetic mean [1] | Cmax ratio (Day6) / (Day1), geometric mean [1] | Total AUC ratio (Day2) / (Day1), arithmetic mean [1] | Total AUC ratio (Day2) / (Day1), geometric mean [1] | Total AUC ratio (Day6) / (Day1), arithmetic mean [1] | Total AUC ratio (Day6) / (Day1), geometric mean [1] | Truncated AUC ratio (Day2) / (Day1), arithmetic mean [1] | Truncated AUC ratio (Day2) / (Day1), geometric mean [1] | Truncated AUC ratio (Day6) / (Day1), arithmetic mean [1] | Truncated AUC ratio (Day6) / (Day1), geometric mean [1] | Inhibition of acetaminophen glucuronide formation [4] | other results
1 | CC(=O)Nc1ccc(O[C@@H]2O[C@H](C(=O)O)[C@@H](O)[C@H](O)[C@H]2O)cc1 [Acetaminophen glucuronide] | 99.3 (± 5.1) µg ml^–1 h | 109.0 (± 7.1) µg ml^–1 h | 3.3 | 3.5 | 1.19* | 1.18 | 1.26* | 1.22 | 1.23* | 1.22 | 1.35* | 1.32 | 1.23* | 1.21 | 1.34* | 1.31 | – | –
2 | NC(=O)c1nc(F)c[nH]c1=O [Favipiravir, reference compound] | – | – | – | – | – | – | – | – | – | – | – | – | – | – | – | – | did not inhibit | IC50 at 15 min [3]: 150 µM
3 | NC(=O)c1nc(F)c(=O)[nH]c1O [T‐705M1] | – | – | – | – | – | – | – | – | – | – | – | – | – | – | – | – | did not inhibit; also recorded: no effect | –

Continued, in another order:

Row | Total AUC [1, 5] | Total AUC [1, 6] | half-life [1, 7] [h] | half-life [1, 5] [h] | Cmax ratio (Day2) / (Day1), arithmetic mean [1] | Cmax ratio (Day2) / (Day1), geometric mean [1] | Cmax ratio (Day6) / (Day1), arithmetic mean [1] | Cmax ratio (Day6) / (Day1), geometric mean [1] | Total AUC ratio (Day2) / (Day1), arithmetic mean [1] | Total AUC ratio (Day2) / (Day1), geometric mean [1] | Total AUC ratio (Day6) / (Day1), arithmetic mean [1] | Total AUC ratio (Day6) / (Day1), geometric mean [1] | Truncated AUC ratio (Day2) / (Day1), arithmetic mean [1] | Truncated AUC ratio (Day2) / (Day1), geometric mean [1] | Truncated AUC ratio (Day6) / (Day1), arithmetic mean [1] | Truncated AUC ratio (Day6) / (Day1), geometric mean [1] | Compound | Inhibition of acetaminophen glucuronide formation [4] | other results
4 | 39.3 (± 3.1) µg ml^–1 h | 37.4 (± 2.5) µg ml^–1 h | 2.8 | 3 | 1.07 | 1.03 | 1.17 | 1.08 | 1.20* | 1.17 | 1.19* | 1.14 | 1.19* | 1.17 | 1.19* | 1.14 | CC(=O)Nc1ccc(O)cc1 [Acetaminophen, reference compound] | – | Dose excreted in urine as intact acetaminophen ([2]; on average): less than 10 % of the dose; Effect of favipiravir co-administration on Cmax ([1]; acute (day 2) and extended (day 6) favipiravir vs day 1): not significantly changed; also recorded: no significant effect
5 | 21.2 (± 2.1) µg ml^–1 h | 20.1 (± 2.3) µg ml^–1 h | – | – | 0.52* | 0.51 | 0.52* | 0.47 | 0.84* | 0.8 | 0.81 | 0.72 | 0.71* | 0.7 | 0.65* | 0.6 | CC(=O)Nc1ccc(OS(=O)(=O)O)cc1 [Acetaminophen sulfate] | – | Projected total urinary excretion ([2]; Day 1, acetaminophen 650 mg alone (control), mean (± SE), n = 28): 22 (± 2) % of dose; Cmax ([1]; Day 1, acetaminophen 650 mg oral alone (control), mean (± SE), n = 28): 4.8 (± 0.4) µg ml^–1; tmax ([1]; Day 1, acetaminophen 650 mg oral alone (control), n = 28): 1.00 (± 0.33) h; Truncated AUC [1, 8]: 22.4 (± 1.7) µg ml^–1 h; t½ [1, 8]: 3.4 (± 0.1) h; Truncated AUC [1, 5]: 16.0 (± 1.3) µg ml^–1 h; t½ [1, 5]: 5.5 (± 0.6) h; tmax ([1]; Day 2, acetaminophen 650 mg oral + acute favipiravir, n = 28): 1.51 (± 0.1) h; Truncated AUC [1, 6]: 14.6 (± 1.6) µg ml^–1 h; t½ [1, 6]: 5.3 (± 0.4) h; tmax ([1]; Day 6, acetaminophen 650 mg oral + extended favipiravir, n = 28): 1.27 (± 0.09) h
